Patent publication US20040132807A1, “Aurones as telomerase inhibitors” (priority 2001, published 2004)

Target: T1, telomerase enzyme (Homo sapiens, UniProt O14746)
T1 construct: telomerase enzyme diluted in a buffer
Assay: Flash Plate-based telomerase activity assay
Format: biochemical
Conditions: two hours incubation at 37°, biotinylated oligo primer, radiolabeled probe, streptavidin flash plate; read-out: IC50 (telomerase inhibitory activity)
Procedure: The telomerase activity of the compounds has been evaluated using a Flash Plate-based assay.
The assay mixture is constituted of:
telomerase enzyme diluted in a buffer, the composition of which has been selected to maintain the enzyme activity stable along the duration of the assay.
dNTPs, deoxynucleotides 5′-triphosphate.
biotinylated oligo as primer.
increasing concentrations of test compounds/positive control.
After two hours of incubation at 37° degrees the telomeric repeats added by telomerase are evaluated by hybridization in solution with a 3′-radioactive labeled short oligonucleotide probe. The extent of hybridization is then quantitated by transferring the reaction mixture in a streptavidin-coated flash plate, where the binding between biotin and streptavidin occurs. The telomerase activity is proportional to the radioactivity measured and the inhibitory activity of the compounds is evaluated as IC50 using the Sigma Plot fit program.
The IC50 values for the compounds of the present invention were determined according to the above-described method.

T1 sequence (O14746 whole entry): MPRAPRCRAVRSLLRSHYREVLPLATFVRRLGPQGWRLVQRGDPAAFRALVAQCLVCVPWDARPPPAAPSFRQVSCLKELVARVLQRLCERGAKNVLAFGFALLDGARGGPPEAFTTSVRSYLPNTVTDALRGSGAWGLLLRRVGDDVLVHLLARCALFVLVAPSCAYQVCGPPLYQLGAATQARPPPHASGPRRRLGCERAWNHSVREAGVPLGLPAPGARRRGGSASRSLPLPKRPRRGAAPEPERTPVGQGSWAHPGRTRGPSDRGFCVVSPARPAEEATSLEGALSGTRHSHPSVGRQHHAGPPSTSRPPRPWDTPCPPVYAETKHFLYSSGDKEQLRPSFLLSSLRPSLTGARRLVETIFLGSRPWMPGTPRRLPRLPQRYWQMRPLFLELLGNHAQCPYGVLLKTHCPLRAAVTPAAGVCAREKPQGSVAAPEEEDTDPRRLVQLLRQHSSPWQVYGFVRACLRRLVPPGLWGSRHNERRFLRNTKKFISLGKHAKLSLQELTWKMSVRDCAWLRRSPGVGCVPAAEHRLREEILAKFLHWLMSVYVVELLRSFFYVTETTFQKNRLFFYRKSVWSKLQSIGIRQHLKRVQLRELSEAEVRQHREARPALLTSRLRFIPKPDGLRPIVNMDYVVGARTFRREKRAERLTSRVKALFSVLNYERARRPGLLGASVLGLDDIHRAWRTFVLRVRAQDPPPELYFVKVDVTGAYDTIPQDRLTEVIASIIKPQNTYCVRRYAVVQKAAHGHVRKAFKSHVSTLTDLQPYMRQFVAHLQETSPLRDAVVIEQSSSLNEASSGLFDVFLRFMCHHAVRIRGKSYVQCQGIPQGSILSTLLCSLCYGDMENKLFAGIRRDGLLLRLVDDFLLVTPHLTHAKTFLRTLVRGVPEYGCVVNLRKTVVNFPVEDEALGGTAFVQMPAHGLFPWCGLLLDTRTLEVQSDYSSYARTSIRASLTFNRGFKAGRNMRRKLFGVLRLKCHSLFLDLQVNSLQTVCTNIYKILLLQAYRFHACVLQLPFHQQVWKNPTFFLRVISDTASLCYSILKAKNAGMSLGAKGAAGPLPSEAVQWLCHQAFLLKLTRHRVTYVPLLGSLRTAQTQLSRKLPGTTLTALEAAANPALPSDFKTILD

SMILES	IC50 [µM]
COc1ccc(C=C2Oc3c(ccc(O)c3O)C2=O)cc1OC [Compound 3, 2-(3,4-dimethoxybenzylidene)-6,7-dihydroxy-1-benzofuran-3(2H)-one]	11
O=C1C(=Cc2ccc(O)cc2O)Oc2c1ccc(O)c2O [Compound 4, 2-(2,4-dihydroxybenzylidene)-6,7-dihydroxy-1-benzofuran-3(2H)-one]	1.5
O=C1C(=Cc2ccc(O)c(O)c2)Oc2c1ccc(O)c2O [Compound 1, 2-(3,4-dihydroxybenzylidene)-6,7-dihydroxy-1-benzofuran-3(2H)-one]	0.3
O=C1C(=Cc2ccc3c(c2)OCO3)Oc2c1ccc(O)c2O [Compound 2, 2-(1,3-benzodioxol-5-ylmethylene)-6,7-dihydroxy-1-benzofuran-3(2H)-one]	13

Now from value to molecule:

IC50 [µM]	SMILES
8	O=C1C(=Cc2ccc(Cl)c(Cl)c2)Oc2c1ccc(O)c2O [Compound 5, 2-(3,4-dichlorobenzylidene)-6,7-dihydroxy-1-benzofuran-3(2H)-one]
7	O=C1c2ccc(O)c(O)c2OC1Cc1ccc(O)c(O)c1 (stereo not drawn) [Compound 89, 2-(3,4-dihydroxybenzyl)-6,7-dihydroxy-1-benzofuran-3(2H)-one]
